Data from patent US20230043204A1, “DIHYDROERGOTAMINE MESYLATE FORMULATIONS AND PRE-FILLED INJECTORS FOR THERAPEUTIC DELIVERY OF THE SAME” (Scienture, Inc., priority 2019, published 2023).
Where a name gives a salt, the structure may show the parent alone.

How the values were obtained:
Assay type in all cases: physicochemical
[1] = 5 mg/mL DHE mesylate stability in solvents suitable for parenteral injection (HPLC); set-up: Total Impurities Initial: unit not given here; conditions: for DHE (mg/mL) After 1 Week / Total Impurities After 1 Week: 1 week 40° C. sealed vial
Experimental: (§1) The examples herein describe analysis of formulations comprising DHE, and analysis of impurity content. Unless specifically indicated otherwise, analysis was carried out by HPLC according to the parameters in Tables 2-4.
(§2) Mobile Phase A in Tables 3 and 4 contains 2.75 g of sodium 1-heptane sulfonate in 1000 mL Purified Water, pH adjusted to 2.0 with o-phosphoric acid. Mobile Phase B in Tables 3 and 4 contains 200 mL of Mobile Phase A mixed with 800 mL of acetonitrile.
Solvents that are suitable for parenteral injections were selected, and solutions of 5 mg/mL DHE mesylate in each (Table 5) were stored at 40° C. in sealed vials. Following 1 week of storage, the remaining amount of DHE was determined by HPLC, indicating solvents compatible with stable DHE storage.

[2] = HPLC analysis of formulation J after one day of storage at room temperature; conditions: API sample as comparison
Experimental: as §1, §2
After one day of storage at room temperature, formulation J was analyzed for DHE and impurities, as shown in the last two rows of Table 8. Testing for specific impurities relative to a sample of API (DHE mesylate) yielded the results of Table 9.

[3] = Stability of formulations L, M, N at accelerated conditions (40° C., sealed vials; HPLC); conditions: Initial
Experimental: as §1, §2
Additional formulations “L”, “M”, and “N” were prepared according to Table 9 and analyzed for the concentration of DHE and impurities following one day in sealed vials at 40° C. Specific impurities were analyzed after storage in sealed vials after one and two weeks at 40° C. (Table 10).

[4] = HPLC DHE and specific impurity analysis of formulations O and P on storage; conditions: 0 Time
Experimental: as §1, §2
The formulation of Table 11 (“P”) was prepared for use in canine studies. An additional formulation was prepared (“O”), replacing DMSO of formula P with an equal amount of propylene glycol.

[5] = Solubility of DHE in solvents (observation); conditions: in DMSO, benzyl alcohol, ethanol, propylene glycol, and captisol
Text: Based on this discovery and the solubility and stability data generated above for various solvents, preservatives, and antioxidants, additional stable formulations are included as non-limiting examples in Table 15. Prophetic formulations are included as non-limiting examples in Tables 16 and 17.

In the case of CN1C[C@H](C(=O)N[C@]2(C)O[C@@]3(O)[C@@H]4CCCN4C(=O)[C@H](Cc4ccccc4)N3C2=O)C[C@@H]2c3cccc4[nH]cc(c34)C[C@H]21 [DHE Mesylate, ergotaman-3′,6′,19-trione, 9,10-dihydro-12′-hydroxy-2′-methyl-5′-(phenylmethyl)-, (5′α)-, monomethane-sulfonate], the “DHE (mg/mL) Initial” value ([1]; 5 mg/mL solution in 15% solution of Kollidon 30) is reported as 1.7 mg/mL, the “DHE (mg/mL) Initial” value ([1]; 5 mg/mL solution in Alcohol, USP) is reported as 5 mg/mL and the “DHE (mg/mL) Initial” value ([1]; 5 mg/mL solution in Benzyl Alcohol) is reported as 4.9 mg/mL. The “DHE (mg/mL) Initial” value ([1]; 5 mg/mL solution in DMSO) was 5.1 mg/mL, the “DHE (mg/mL) Initial” value ([1]; 5 mg/mL solution in Glycerin, USP) was 1.3 mg/mL and the “DHE (mg/mL) Initial” value ([1]; 5 mg/mL solution in Glycerin:Ethanol (1:1)) was 5.1 mg/mL. The “DHE (mg/mL) Initial” value ([1]; 5 mg/mL solution in N,N Dimethyl Acetamide) was 5.1 mg/mL, the “DHE (mg/mL) Initial” value ([1]; 5 mg/mL solution in N-methyl pyrrolidone) was 5.1 mg/mL and the “DHE (mg/mL) Initial” value ([1]; 5 mg/mL solution in PEG 200) was 4.3 mg/mL. For the same molecule, the “DHE (mg/mL) Initial” value ([1]; 5 mg/mL solution in Propylene Glycol) was 4.8 mg/mL, the “DHE (mg/mL) Initial” value ([1]; 5 mg/mL solution in Purified water) was 4.1 mg/mL and the “DHE (mg/mL) After 1 Week” value ([1]; 15% solution of Kollidon 30) was 3.7 mg/mL. For the same molecule, the “Total Impurities After 1 Week” value ([1]; 15% solution of Kollidon 30) was 9.95, the “Total Impurities Initial” value ([1]; 15% solution of Kollidon 30) was 0.24 and the “DHE (mg/mL) After 1 Week” value ([1]; Alcohol, USP) was 5 mg/mL. The “Total Impurities After 1 Week” value ([1]; Alcohol, USP) was 0.38, the “Total Impurities Initial” value ([1]; Alcohol, USP) was 0.24 and the “DHE (mg/mL) After 1 Week” value ([1]; Benzyl Alcohol) was 4.2 mg/mL. For the same molecule, the “Total Impurities After 1 Week” value ([1]; Benzyl Alcohol) was 2.51, the “Total Impurities Initial” value ([1]; Benzyl Alcohol) was 9.58 and the “DHE (mg/mL) After 1 Week” value ([1]; DMSO) was 5 mg/mL. The “Total Impurities After 1 Week” value ([1]; DMSO) was 0.47, the “Total Impurities Initial” value ([1]; DMSO) was 0.26 and the “DHE (mg/mL) After 1 Week” value ([1]; Glycerin, USP) was 6 mg/mL. The “Total Impurities After 1 Week” value ([1]; Glycerin, USP) was 0.33, the “Total Impurities Initial” value ([1]; Glycerin, USP) was 0.21 and the “DHE (mg/mL) After 1 Week” value ([1]; Glycerin:Ethanol (1:1)) was 5.1 mg/mL. The “Total Impurities After 1 Week” value ([1]; Glycerin:Ethanol (1:1)) was 0.4, the “Total Impurities Initial” value ([1]; Glycerin:Ethanol (1:1)) was 0.28 and the “DHE (mg/mL) After 1 Week” value ([1]; N,N Dimethyl Acetamide) was 5.4 mg/mL. For the same molecule, the “Total Impurities After 1 Week” value ([1]; N,N Dimethyl Acetamide) was 0.8, the “Total Impurities Initial” value ([1]; N,N Dimethyl Acetamide) was 0.13 and the “DHE (mg/mL) After 1 Week” value ([1]; N-methyl pyrrolidone) was 4.8 mg/mL. For the same molecule, the “Total Impurities After 1 Week” value ([1]; N-methyl pyrrolidone) was 1.14, the “Total Impurities Initial” value ([1]; N-methyl pyrrolidone) was 0.33 and the “DHE (mg/mL) After 1 Week” value ([1]; PEG 200) was 4.9 mg/mL. For the same molecule, the “Total Impurities After 1 Week” value ([1]; PEG 200) was 1.36, the “Total Impurities Initial” value ([1]; PEG 200) was 0.25 and the “DHE (mg/mL) After 1 Week” value ([1]; Propylene Glycol) was 5.1 mg/mL. For the same molecule, the “Total Impurities After 1 Week” value ([1]; Propylene Glycol) was 0.42, the “Total Impurities Initial” value ([1]; Propylene Glycol) was 0.26 and the “DHE (mg/mL) After 1 Week” value ([1]; Purified water) was 4.4 mg/mL. The “Total Impurities After 1 Week” value ([1]; Purified water) was 3.5, the “Total Impurities Initial” value ([1]; Purified water) was 0.24 and the “Total Impurities following 1 day of storage” value [2] was 0.19. The “impurity peak, RRT 0.75” value [2] was 0.03, the “impurity peak, RRT 0.84 (Imp-C)” value [2] was 0.02 and the “impurity peak, RRT 0.9” value [2] was 0.03. The “impurity peak, RRT 1.24” value [2] was 0.11, the “% Total Impurities” value [3] was 0.2% and the “impurity peak, RRT 0.87” value [3] was 0. The “impurity peak, RRT 0.92” value [3] was 0.1, the “impurity peak, RRT 1.22 (Impurity B)” value [3] was 0.1 and the “% Total Impurities” value [4] was 0.2%. For the same molecule, the “impurity peak, RRT 0.87” value [4] was 0, the “impurity peak, RRT 0.92” value [4] was 0.1 and the “impurity peak, RRT 1.21 (Imp-B)” value [4] was 0.1.
In the case of CN1C[C@H](C(=O)N[C@]2(C)O[C@@]3(O)[C@@H]4CCCN4C(=O)[C@H](Cc4ccccc4)N3C2=O)C[C@@H]2c3cccc4[nH]cc(c34)C[C@H]21 [DHE, (5′α)-9,10-dihydro-12′-hydroxy-2′-methyl-5′-(phenylmethyl)-ergotaman-3′,6′,18-trione], the “solubility (observation in words)” value [5] is reported as “highly soluble”.
